The values below come from patent US9469645B2, “Compounds and compositions for the treatment of parasitic diseases” (Novartis AG, priority 2009, dated 2016).

What is called IC50 is the midpoint of a concentration-inhibition curve.

In one assay the test system is 3D7 P. falciparum strain. Briefly: parasite proliferation assay in infected red blood cells (SYBR Green I). It is filed as cell-based, Plasmodium falciparum. The conditions noted are these: Plasmodium falciparum, 3D7, Erythrocyte, 3D7 strain; read-out: EC50 3D7 strain. In short, it runs like this: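 P. falciparum 3D7 grown in O+ human erythrocytes to 3–8% parasitemia and exposed to compounds. Proliferation read as the increase in parasite DNA. Detection used SYBR Green I in saponin/triton-X/EDTA lysis buffer, with overnight lysis at room temperature.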

The subject of assay [1] is Trypanosoma brucei Lister 427 strain. Description: Trypanosoma brucei proliferation assay (Cell Titer Glo). It is filed as cell-based. The conditions noted are these: Lister 427 bloodstream form, 48 hours, read-out: EC50, proliferation of T. brucei. From the text:
Compounds of the invention can be assayed to measure their capacity to inhibit proliferation of kinetoplastid parasite Trypanosoma brucei. The proliferation is quantified by the addition of Cell Titer Glo (Promega®) a luminescent cell viability assay that measures the number of viable cells in culture based on the quantification of cellular ATP amount, which is an indicator of metabolically active cells.
The following assay illustrates the invention without in any way limiting the scope of the invention. This parasite proliferation assay measures the increase in parasite growth using an assay that measures ATP activity, Cell Titer Glo®.
Trypanosoma brucei Lister 427 strain is grown in HMI-9 Trypanosome media for T. brucei bloodstream form. 30 μl of HMI-9 media is dispensed into 384 well assay plates. 200 nl of compounds of the invention (in DMSO), including anti-trypanosome controls (Pentamidine and suramin), are then transferred into the assay plates, as well as DMSO alone to serve as a negative control for inhibition. Then 25 μl of a suspension of T. brucei culture in HMI-9 media is dispensed into the assay plates. The final concentration of parasites in culture corresponds to 1.7% of 0.5 uM ATP activity with Cell Titer Glo® in HMI-9 media. […] The plates are then read for luminescence.
(Cellular ATP, detected with luciferase, serves as a proxy for viable cell number.)

For assay [2], the target named is mitogen-activated protein kinase-activated protein kinase 2 (MapKap2 or MK-2) (Homo sapiens, UniProt P49137). Briefly: MK-2 enzyme inhibition, single point concentration. It counts as biochemical.
Chain of mitogen-activated protein kinase-activated protein kinase 2 (MapKap2 or MK-2) (P49137 whole entry): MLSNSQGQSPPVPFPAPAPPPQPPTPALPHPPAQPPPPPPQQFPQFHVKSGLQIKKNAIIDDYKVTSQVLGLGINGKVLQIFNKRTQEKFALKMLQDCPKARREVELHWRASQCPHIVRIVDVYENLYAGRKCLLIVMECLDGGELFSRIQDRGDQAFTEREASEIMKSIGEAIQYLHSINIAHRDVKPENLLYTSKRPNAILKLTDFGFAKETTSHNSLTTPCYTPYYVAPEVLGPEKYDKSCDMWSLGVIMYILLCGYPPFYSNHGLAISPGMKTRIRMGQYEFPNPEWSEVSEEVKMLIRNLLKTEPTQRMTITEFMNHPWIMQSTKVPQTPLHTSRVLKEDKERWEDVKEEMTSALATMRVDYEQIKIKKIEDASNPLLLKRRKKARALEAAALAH
In assay [3] the target is cannabinoid receptor 1 (CB1) (Homo sapiens, UniProt P21554). Briefly: cannabinoid receptor 1 (CB1) IC50. It is filed as binding. The conditions noted are these: read-out: IC50 against CB1.
Chain of cannabinoid receptor 1 (CB1) (P21554 whole entry, species assumed): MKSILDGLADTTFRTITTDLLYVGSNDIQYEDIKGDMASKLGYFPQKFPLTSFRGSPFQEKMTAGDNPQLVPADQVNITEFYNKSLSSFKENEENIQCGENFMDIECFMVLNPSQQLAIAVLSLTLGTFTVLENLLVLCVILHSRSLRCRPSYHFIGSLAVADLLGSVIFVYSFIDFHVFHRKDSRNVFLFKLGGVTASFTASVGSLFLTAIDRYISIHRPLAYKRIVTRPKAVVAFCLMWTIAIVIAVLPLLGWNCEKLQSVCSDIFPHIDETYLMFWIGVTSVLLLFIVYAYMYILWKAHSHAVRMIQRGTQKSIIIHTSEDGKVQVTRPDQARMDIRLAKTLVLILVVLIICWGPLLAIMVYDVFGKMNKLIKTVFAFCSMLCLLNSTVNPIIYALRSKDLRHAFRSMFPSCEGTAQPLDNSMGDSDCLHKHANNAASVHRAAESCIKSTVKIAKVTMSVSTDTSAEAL
In assay [4] the test system is W2 strain. Briefly: parasite proliferation assay in infected red blood cells (SYBR Green I), W2 strain. It is filed as cell-based, Plasmodium falciparum. The conditions noted are these: Plasmodium falciparum, Erythrocyte. From the text:
(§1) Compounds of the invention can be assayed to measure their capacity to inhibit proliferation of parasitemia in infected red blood cells. The proliferation is quantified by the addition of SYBR Green I (INVITROGEN)® dye which has a high affinity for double stranded DNA.

Assay [5] relates to W2 strain. The description is as above. It is filed as cell-based. The conditions noted are these: Erythrocyte.
Description: as §1

On to `CC1(C)c2nc(-c3ccc(F)cc3)c(Nc3ccc(F)cc3)n2CCN1C(=O)CN` [example 412, 2-amino-1-(2-(4-fluorophenyl)-3-(4-fluorophenylamino)-8,8-dimethyl-5,6-dihydroimidazo[1,2-a]pyrazin-7(8H)-yl)ethanone], for which the figures for the EC50 (with 3D7 P. falciparum strain; in assay [1]; with W2 strain [4]) were 10 nM, 10000 nM and 6 nM, respectively. Besides, the “inhibition of MK-2” value in assay [2] came to 7%. In addition, in assay [3], the IC50 was determined as 24000 nM.
As to `CC(C)(N)C(=O)N1CCn2c(nc(-c3ccc(F)cc3)c2Nc2ccc(F)c(F)c2)C1` [Example 29, 2-amino-1-(3-(3,4-difluorophenylamino)-2-(4-fluorophenyl)-5,6-dihydroimidazo[1,2-a]pyrazin-7(8H)-yl)-2-methylpropan-1-one], the EC50 stood at 30 nM in the assay on 3D7 P. falciparum strain, 7000 nM in assay [1] and 36 nM in the assay with W2 strain [5]. Further, the “inhibition of MK-2” value in assay [2] is 15%. For the same compound, in assay [3], the IC50 was greater than 30000 nM.
